Measurements: US20240208997A1, “CYCLIC BENZIMIDAZOLE DERIVATIVES AS CGAS INHIBITORS” (Boehringer Ingelheim International GmbH, priority 2022, published 2024)
Where two headings read alike, the source gives them in different places.

Key:
[1] = test system: IFN induction in dsDNA-stimulated human whole blood; details: Table 4; compounds of PCT/EP2022/062480 and PCT/EP2022/062496 and their methyl ester prodrugs; read-out: hWB IC50; cited from earlier work
[2] = test system: IFN induction in virus-stimulated THP1 cells; details: Table 4; compounds of PCT/EP2022/062480 and PCT/EP2022/062496 and their methyl ester prodrugs; read-out: THP1(vir) IC50; cited from earlier work
[3] = test system: IFN induction in cGAMP-stimulated THP1 cells; details: Table 4; compounds of PCT/EP2022/062480 and PCT/EP2022/062496 and their methyl ester prodrugs; cited from earlier work
[4] = test system: IFN induction in virus-stimulated THP1 cells; assay: Human cGAS cell assay, virus-stimulated THP1-Dual cells (THP1(vir) IC50); format: cell-based
From the text: (§1) 6.2 Method: Human cGAS Cell Assay and cGAMP Stimulated Counter Cell Assay (THP1(vir) IC50 and THP1(cGAMP) IC50)
THP1-Dual™ cells (InvivoGen #thpd-nfis) expressing IRF dependent Lucia luciferase reporter were used as basis for both assays. For the detection of cellular cGAS activity cells were stimulated by a baculovirus (pFastbac-1, Invitrogen, no coding insert) infection that delivers the cGAS enzyme stimulating double-stranded DNA (measurement of THP1(vir) IC50).
(§2) Pathway activity was monitored by measuring the Lucia luciferase activity induced by either DNA stimulated cGAS enzyme activity (measurement of THP1(vir) IC50) or by cGAMP directly (measurement of THP1(cGAMP) IC50, counter assay).
(§3) Compounds were delivered in 10 mM DMSO solution, serially diluted and transferred to the 384 well assay plate (Greiner #781201) using an Echo acoustic dispenser. Typically, 8 concentrations were used with the highest concentration at 10 μM in the final assay volume followed by ^˜1:5 dilution steps. DMSO concentration was set to 1% in the final assay volume. The 384 well assay plate contained […] (column 1-22), and DMSO in column 23 and 24.
(§4) Cells, cultivated according to manufacturer conditions, were harvested by centrifugation at 300 g/10 min and were then resuspended and diluted to 1.66E5 cells/ml in fresh cell culture medium (RPMI 1640 (Gibco #A10491-01), 10% FCS (Gibco #10500), 1× GlutaMax (Gibco #35050-061), 1× Pen/Strep solution (Gibco #15140-122), 100 μg/ml Normocin (InvivoGen #ant-nr), 100 μg/ml Zeocin (InvivoGen #ant-zn), 10 μg/ml Blasticidin S (Life Technologies #A11139-03)). The baculovirus solution was then added 1:200 (have varied according to virus batch) to the cells (measurement of THP1(vir) IC50).
(§5) 30 μL of the cell/virus-mix were added to each well of the compound plate from column 1-23 via MultiDrop Combi dispenser (5000 cells/well). In column 24, 30 μl/5000 cells/well without virus were added as a low control.
(§6) The plates were then incubated for 18 h at 37° C. in a humidified incubator.
(§7) Following that, 15 μL of QuantiLuc detection reagent (InvivoGen #rep-qlcg5) were added to each well using a MultiDrop Combi. Measurement was done immediately after the addition using an EnVision reader (US-luminescence read-mode).
(§8) Data Evaluation and Calculation:
(§9) For data evaluation and calculation, the measurement of the low control was set as 0% control and the measurement of the high control was set as 100% control. The IC50 values were calculated using the standard 4 parameter logistic regression formula. Calculation: [y=(a−d)/(1+(x/c)^b)+d], a=low value, d=high value; x=conc M; c=IC50 M; b=slope

cGAS [5] = molecular target: T1, cGAS (Homo sapiens, UniProt Q8N884); design: HumancGAS (amino acid 1-522) with an N-terminal 6×-His-tag and SUMO-tag; 6xHis (N); SUMO (N); made in house; host or cells: E. coli BL21(DE3) pLysS; details: Table 4; compounds of PCT/EP2022/062480 and PCT/EP2022/062496 and their methyl ester prodrugs; read-out: hcGAS IC50; cited from earlier work
cGAS [6] = molecular target: T1, cGAS; details: groups as on page 44/45 of WO 2020/142729; read-out: biochemical (in vitro) IC50-value, group; cited from earlier work
[7] = test system: IFN induction in cGAMP-stimulated THP1 cells; assay: cGAMP stimulated counter cell assay in THP1-Dual cells (THP1(cGAMP) IC50); format: cell-based, human; details: Homo sapiens, read-out: THP1(cGAMP) IC50
From the text: as §1
For the counter assay, cells were stimulated by cGAMP (SigmaAldrich #SML1232) to activate the identical pathway independent and directly downstream of cGAS (measurement of THP1(cGAMP) IC50).
as §2, §3, §4, §5, §6, §7, §8, §9

cGAS [8] = molecular target: T1, cGAS; details: page 65, Table 2 of WO 2022/174012; read-out: enzymatic IC50-value, group; cited from earlier work
THP-1 = details: page 67 and 68, Table 3 of WO 2022/174012; read-out: cellular IC50-value (IFNβ ELISA stimulated with THP-1), group; cited from earlier work
[9] = THP-1, Table 2, compounds of WO 2020/142729, read-out: THP1(vir) IC50
[10] = THP-1, Table 2, compounds of WO 2020/142729

T1 sequence (Q8N884 whole entry): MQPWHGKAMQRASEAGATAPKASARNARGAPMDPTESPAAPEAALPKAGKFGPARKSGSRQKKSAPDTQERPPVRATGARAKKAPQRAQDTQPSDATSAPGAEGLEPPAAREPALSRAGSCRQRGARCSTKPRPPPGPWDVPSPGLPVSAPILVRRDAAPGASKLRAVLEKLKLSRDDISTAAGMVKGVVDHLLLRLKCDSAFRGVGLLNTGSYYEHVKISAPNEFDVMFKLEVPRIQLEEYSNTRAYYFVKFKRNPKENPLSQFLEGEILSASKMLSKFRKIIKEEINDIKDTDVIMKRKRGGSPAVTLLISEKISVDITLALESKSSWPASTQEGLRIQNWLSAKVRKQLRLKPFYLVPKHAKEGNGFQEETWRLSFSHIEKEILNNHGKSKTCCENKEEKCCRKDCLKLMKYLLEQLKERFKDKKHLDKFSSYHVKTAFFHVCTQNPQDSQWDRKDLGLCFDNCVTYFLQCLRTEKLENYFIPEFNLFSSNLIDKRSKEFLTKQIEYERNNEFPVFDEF

**Q.** For C[C@@H]1N(c2cccnc2O[C@H]2C[C@@H](C(=O)O)N(c3nc(C(F)F)nc4c3oc3ccccc34)C2)CCOC12COC2 [Ex. 4.04 of PCT/EP2022/062 480], which IC50 [1] is on record?
**A.** 77 nM

**Q.** What about the IC50 [2] of the same compound?
**A.** 386 nM

**Q.** What about the IC50 [3] of the same compound?
**A.** > 16.6 µM

**Q.** With Cc1nc(N2C[C@@H](CC(=O)Nc3ccncc3)C[C@H]2C(=O)O)c2oc3ccccc3c2n1 [Example 28, reference compound] as the compound, how does the IC50 [4, 9] read?
**A.** > 32 µM

**Q.** Which results are given for COc1ncccc1-c1cnc(O[C@H]2C[C@@H](C(=O)O)N(c3nc(C(F)(F)F)nc4c3oc3ccccc34)C2)c(N2CCOC3(COC3)[C@@H]2C)c1 [Ex. 3.14 of PCT/EP2022/062 480]?
**A.** IC50 [1]: 26 nM; IC50 [2]: 10 nM; IC50 [3]: 7.83 µM

**Q.** For COC(=O)[C@@H]1C[C@H](Oc2ncccc2N2CCOC3(COC3)[C@@H]2C)CN1c1nc(C(F)F)nc2c1oc1ccccc12 [P01 of PCT/EP2022/062 480], which IC50 [1] is on record?
**A.** 1310 nM

**Q.** What about the IC50 (cGAS [5]) of the same compound?
**A.** > 9.96 µM

**Q.** What about the IC50 [2] of the same compound?
**A.** 358 nM

**Q.** What about the IC50 [3] of the same compound?
**A.** 26.1 µM

**Q.** With C#Cc1cnc(O[C@H]2C[C@@H](C(=O)OC)N(c3nc(C(F)(F)F)nc4c3oc3ccccc34)C2)c([C@@]2(F)CCS(=O)(=O)C[C@@H]2C)c1 [P01 of PCT/EP2022/062 496] as the compound, how does the IC50 [1] read?
**A.** 67 nM

**Q.** And the IC50 [2]?
**A.** 11 nM

**Q.** And the IC50 [3]?
**A.** > 16.6 µM

**Q.** What does the source list for Cc1nc(N2C[C@@H](Cc3nn[nH]n3)C[C@H]2C(=O)O)c2oc3ccccc3c2n1 [Example 25, reference compound]?
**A.** IC50 (cGAS [6]): < 100 nM; IC50 [7, 10]: > 17 µM; IC50 [4, 9]: > 17 µM; IC50 ([4]; THP-1, running text, read-out: THP1(vir) IC50): 17 µM

**Q.** Which IC50 [1] does the source give for C[C@H]1CS(=O)(=O)CC[C@]1(F)c1cc(Cl)cnc1O[C@H]1C[C@@H](C(=O)O)N(c2nc(C(F)F)nc3c2oc2ccccc23)C1 [Ex. 1.13 of PCT/ EP2022/062496] here?
**A.** 6 nM

**Q.** And the IC50 [3]?
**A.** 22.5 µM

**Q.** For COC(=O)[C@@H]1C[C@H](Oc2ncc(Cl)cc2[C@@]2(F)CCS(=O)(=O)C[C@@H]2C)CN1c1nc(C(F)F)nc2c1oc1ccccc12 [P02 of PCT/ EP2022/062496], which IC50 [1] is on record?
**A.** 140 nM

**Q.** What about the IC50 (cGAS [5]) of the same compound?
**A.** > 9.95 µM

**Q.** What about the IC50 [2] of the same compound?
**A.** 29 nM

**Q.** And the IC50 [3]?
**A.** > 16.6 µM

**Q.** With C[C@@H]1N(c2cc(Br)cnc2OC2C[C@@H](C(=O)O)N(c3nc(C(F)(F)F)nc4c3oc3ccccc34)C2)CCOC12COC2 (some centres unmarked) [Ex. 1.10 of PCT/EP2022/062 480] as the compound, how does the IC50 [1] read?
**A.** 33 nM

**Q.** And the IC50 (cGAS [5])?
**A.** 0.005 µM

**Q.** What about the IC50 [2] of the same compound?
**A.** 91 nM

**Q.** And the IC50 [3]?
**A.** 16.1 µM

**Q.** What does the source list for C#Cc1cnc(O[C@H]2C[C@@H](C(=O)O)N(c3nc(C(F)(F)F)nc4c3oc3ccccc34)C2)c([C@@]2(F)CCS(=O)(=O)C[C@@H]2C)c1 [Ex. 2.12 of PCT/ EP2022/062496]?
**A.** IC50 [1]: 8 nM; IC50 [3]: 21.8 µM

**Q.** Which IC50 [1] does the source give for C#Cc1cnc(O[C@H]2C[C@@H](C(=O)OC)N(c3nc(C(F)(F)F)nc4c3oc3ccccc34)C2)c(N2CCOC3(COC3)[C@@H]2C)c1 [P03 of PCT/EP2022/062 480] here?
**A.** 1090 nM

**Q.** And the IC50 [2]?
**A.** 188 nM

**Q.** And the IC50 [3]?
**A.** 22.8 µM

**Q.** With COC(=O)[C@@H]1C[C@H](Oc2ncc(Br)cc2N2CCOC3(COC3)[C@@H]2C)CN1c1nc(C(F)(F)F)nc2c1oc1ccccc12 [P02 of PCT/EP2022/062 480] as the compound, how does the IC50 [1] read?
**A.** 5330 nM

**Q.** What about the IC50 (cGAS [5]) of the same compound?
**A.** > 9.95 µM

**Q.** And the IC50 [2]?
**A.** 444 nM

**Q.** And the IC50 [3]?
**A.** 17.1 µM

**Q.** For C#Cc1cnc(O[C@H]2C[C@@H](C(=O)O)N(c3nc(C(F)(F)F)nc4c3oc3ccccc34)C2)c(N2CCOC3(COC3)[C@@H]2C)c1 [Ex. 1.12 of PCT/EP2022/062 480], which IC50 [1] is on record?
**A.** 15 nM

**Q.** What about the IC50 [2] of the same compound?
**A.** 7 nM

**Q.** What about the IC50 [3] of the same compound?
**A.** 11.9 µM

**Q.** For COC(=O)[C@@H]1C[C@H](Oc2ncc(-c3cccnc3OC)cc2N2CCOC3(COC3)[C@@H]2C)CN1c1nc(C(F)(F)F)nc2c1oc1ccccc12 [P04 of PCT/EP2022/062 480], which IC50 [1] is on record?
**A.** 2750 nM

**Q.** What about the IC50 (cGAS [5]) of the same compound?
**A.** > 9.95 µM

**Q.** What about the IC50 [2] of the same compound?
**A.** 67 nM

**Q.** And the IC50 [3]?
**A.** > 16.6 µM

**Q.** Which IC50 [1] does the source give for CO[C@]1(c2cc(Cl)cnc2O[C@H]2C[C@@H](C(=O)O)N(c3nc(C(F)F)nc4c3oc3ccccc34)C2)CC(C)(C)S(=O)(=O)C[C@@H]1C [Ex. 1.05 of PCT/ EP2022/062496] here?
**A.** 135 nM

**Q.** What about the IC50 [2] of the same compound?
**A.** 44 nM

**Q.** And the IC50 [3]?
**A.** 13.2 µM

**Q.** Which IC50 [7, 10] does the source give for Cc1nc(N2CCC[C@H]2C(=O)O)c2oc3ccccc3c2n1 [Example 15, reference compound] here?
**A.** > 17 µM

**Q.** What about the IC50 [4, 9] of the same compound?
**A.** > 17 µM

**Q.** What does the source list for COC(=O)[C@@H]1C[C@H](Oc2ncc(Cl)cc2[C@@]2(OC)CC(C)(C)S(=O)(=O)C[C@@H]2C)CN1c1nc(C(F)F)nc2c1oc1ccccc12 [P03 of PCT/ EP2022/062496]?
**A.** IC50 [1]: 1990 nM; IC50 [2]: 202 nM; IC50 [3]: 20.6 µM

**Q.** With Cc1nc(N2C[C@@H](Nc3ccncc3)C[C@H]2C(=O)O)c2oc3ccccc3c2n1 [Example 38, reference compound] as the compound, how does the IC50 [7, 10] read?
**A.** > 17 µM

**Q.** What about the IC50 [4, 9] of the same compound?
**A.** > 17 µM

**Q.** For Cc1nc(N2C[C@@H](CC(=O)Nc3ccc(-c4ccccc4)cc3)C[C@H]2C(=O)O)c2oc3ccccc3c2n1 [Compound 5, reference compound], which IC50 (cGAS [8]) is on record?
**A.** 50 to 100 nM

**Q.** What about the IC50 ([7]; THP-1, Table 3, Compound No. 5 of WO 2022/174012) of the same compound?
**A.** > 10 µM

**Q.** And the IC50 (THP-1)?
**A.** < 1000 nM

**Q.** What about the IC50 ([4]; THP-1, Table 3, Compound No. 5 of WO 2022/174012, read-out: THP1(vir) IC50) of the same compound?
**A.** > 10 µM

**Q.** For CC(C)(C(=O)N[C@H]1C[C@@H](C(=O)O)N(c2nc(C(F)(F)F)nc3c2oc2ccccc23)C1)c1cn[nH]c1 [Example 58, reference compound], which IC50 [4, 9] is on record?
**A.** 21 µM
